The record followed here is publication PMC6026870, “Selective induction of cancer cell death by VDAC1‐based peptides and their potential use in cancer therapy” (Molecular Oncology, 2018).

Where “and” joins values, the source holds several entries; their conditions need not be identical. Equal values may be shown once.

One test deals with U‐87MG cell xenograft. In words: Subcutaneous xenograft mouse model, tumor growth. The format is in vivo. The following applies: U‐87MG s.c. xenograft, nude mice; intratumoral 40 or 60 μM, 20 μL per tumor every two days; 14 days; vs HBSS control; n = 5. Here is the method:
(§1) U‐87MG cells (3 × 10^6/mouse), A549 cells (5 × 10^6/mouse), or MDA‐MB‐231 cells (3 × 10^6/mouse) were inoculated subcutaneously (s.c.) into the hind leg flanks of athymic 8‐week‐old male nude mice (Envigo, Huntingdon, UK). Tumor size was measured using a digital caliper and volume was calculated, and when reached 50–100 mm^3 for each tumor type, mice were randomly divided into two groups (five mice per group). […] The xenografts were injected (two points, 20 μL per tumor) every two days. Beginning on the day of inoculation, mouse weight and tumor volume were monitored twice a week. Experiments were terminated after 14, 29, or 20 days for U‐87MG‐, MDA‐MB‐231‐, or A549‐based tumors, respectively. The mice were sacrificed and tumors were excised. Half of each tumor was fixed in 4% buffered formaldehyde, paraffin‐embedded, and processed for IHC, while the second half was frozen in liquid nitrogen for immunoblotting and qPCR analyses. These experimental protocols were approved by the Institutional Animal Care and Use Committee of Ben‐Gurion University.

A further test deals with A549 cell xenograft. In words: Subcutaneous xenograft mouse model, tumor growth. Particulars: A549 s.c. xenograft, nude mice; intratumoral 40 or 60 μM, 20 μL per tumor every two days; 20 days; vs HBSS control; n = 5. The format is in vivo. Here is the method: as §1
The test system of test [1] is MDA‐MB‐231 cell xenograft. In words: Subcutaneous xenograft mouse model, tumor growth. The following applies: MDA‐MB‐231 s.c. xenograft, nude mice; intratumoral 40 or 60 μM, 20 μL per tumor every two days; 29 days; vs HBSS control; n = 5. It counts as in vivo. Here is the method:
as §1

The target in a further test is T1, HK‐I (Homo sapiens, UniProt P19367).
T1 construct: His; made in house; host or cells: Escherichia coli BL21
T1 sequence (P19367 1-917): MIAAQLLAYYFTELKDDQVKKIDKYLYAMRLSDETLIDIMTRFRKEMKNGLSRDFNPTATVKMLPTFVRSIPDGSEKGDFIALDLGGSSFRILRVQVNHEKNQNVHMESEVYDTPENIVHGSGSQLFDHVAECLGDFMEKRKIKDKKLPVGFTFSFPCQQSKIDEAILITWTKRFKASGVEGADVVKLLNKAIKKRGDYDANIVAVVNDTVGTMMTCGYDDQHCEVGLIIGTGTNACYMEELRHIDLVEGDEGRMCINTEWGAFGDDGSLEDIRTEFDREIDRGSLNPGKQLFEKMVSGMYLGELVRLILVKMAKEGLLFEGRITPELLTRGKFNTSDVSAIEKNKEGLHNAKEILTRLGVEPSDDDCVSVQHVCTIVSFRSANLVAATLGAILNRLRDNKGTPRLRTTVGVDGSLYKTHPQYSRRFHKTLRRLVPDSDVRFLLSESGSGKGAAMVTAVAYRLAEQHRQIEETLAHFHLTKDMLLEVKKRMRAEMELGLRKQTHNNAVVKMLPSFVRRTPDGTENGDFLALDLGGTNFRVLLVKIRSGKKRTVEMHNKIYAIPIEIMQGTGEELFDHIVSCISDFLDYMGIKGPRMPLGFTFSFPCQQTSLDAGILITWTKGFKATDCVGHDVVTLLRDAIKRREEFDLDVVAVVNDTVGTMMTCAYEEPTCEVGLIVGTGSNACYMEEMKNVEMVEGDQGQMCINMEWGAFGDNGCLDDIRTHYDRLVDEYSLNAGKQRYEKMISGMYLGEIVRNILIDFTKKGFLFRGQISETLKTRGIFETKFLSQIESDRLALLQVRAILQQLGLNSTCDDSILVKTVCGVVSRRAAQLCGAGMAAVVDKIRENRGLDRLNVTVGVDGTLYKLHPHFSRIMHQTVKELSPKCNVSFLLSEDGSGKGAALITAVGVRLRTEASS
In words: HK activity assay with purified recombinant HK‐I. It counts as biochemical. Particulars: HK‐I 13 µg/ml pre‐incubated with peptide; 1 mM ATP, G6PDH‐coupled, absorbance at 340 nm (Fig. S3B). The procedure: Human HK‐I and HK‐II were cloned into plasmid pET‐His DNA and expressed in Escherichia coli BL21 upon IPTG induction. HK was purified from lysed cells using a HiTrap nickel column (GE Healthcare). Following dialysis, the imidazole‐eluted protein was further purified using a Blue HiTrap column (GE Healthcare). HK was eluted using 10 mM glucose, 20 mM Tris/HCl (pH 8.5), 20% glycerol, and 1.5 mM glucose‐6‐phosphate. Fractions were analyzed by SDS/PAGE and tested for HK activity. The purified active fractions were combined and stored in aliquots at −80 °C.
Change in absorbance at 340 nm (NADH production) was spectrophotometrically measured following addition of 1 mM ATP and 0.05 unit·mL^−1 glucose‐6‐phosphate dehydrogenase.
Purified HK-I (13 µg/ml) was pre-incubated with the indicated concentrations of Tf-D-LP4 (●) or R-Tf-D-LP4 (○) and assayed for HK activity as described in Materials and Methods. Change in absorbance at 340 nm (NADH production) was spectrophotometrically measured following addition of 1 mM ATP, and 0.05 unit/ml glucose-6-phosphate dehydrogenase. C. Tf-D-LP4 and R-Tf-D-LP4 solubility. The peptides were dissolved to a final concentration of 5 mM in 5% DMSO and diluted to 1.1 mM in HBSS. Peptide absorbance in the supernatant was measured at 280 nm following centrifugation at 12,000g before and after 75 min incubation at 24 °C. […] Cell death was analyzed using PI and FACS analysis. […]

Another test concerns HeLa cells. Put plainly: Cellular ATP levels, luciferase‐based assay (CellTiter‐Glo). It counts as cell-based, human. Particulars: 3 h, percentage of control, mean ± SE (n = 3) (Fig. 4F). The procedure:
Cellular ATP levels were estimated using a luciferase‐based assay (CellTiter‐Glo; Promega). […] ATP levels were assayed according to the manufacturer's protocol, and luminescence was recorded using an Infinite M1000 plate reader (Tecan, Männedorf, Switzerland).

Consider `CC[C@H](C)[C@H](NC(=O)[C@H](Cc1ccc(O)cc1)NC(=O)[C@@H]1CCCN1C(=O)[C@H](CCCNC(=N)N)NC(=O)[C@H](Cc1c[nH]cn1)NC(=O)[C@@H](CO)NC(=O)[C@@H](Cc1c[nH]c2ccccc12)NC(=O)[C@H](NC(=O)[C@@H](Cc1c[nH]c2ccccc12)NC(=O)[C@@H](CCC(=O)O)NC(=O)[C@@H](CCCCN)NC(=O)[C@@H](CCCCN)NC(=O)[C@@H](CC(C)C)NC(=O)[C@@H](CCC(=O)O)NC(=O)[C@H](NC(=O)[C@@H](C)NC(=O)[C@H](NC(=O)[C@@H](CC(N)=O)NC(=O)[C@@H](CC(C)C)NC(=O)[C@@H](C)NC(=O)[C@@H](Cc1c[nH]c2ccccc12)NC(=O)[C@H](NC(=O)[C@@H](C)NC(=O)CNC(=O)[C@@H](CC(N)=O)NC(=O)[C@@H](CO)NC(=O)[C@@H](CC(N)=O)NC(=O)[C@@H](CCCCN)NC(=O)[C@@H](Cc1c[nH]c2ccccc12)NC(=O)[C@H](NC(=O)[C@@H](Cc1c[nH]c2ccccc12)NC(=O)[C@H](N)CCCCN)[C@H](C)O)[C@H](C)O)C(C)C)[C@H](C)O)[C@H](C)O)C(=O)N[C@@H](C)C(=O)N[C@@H](Cc1c[nH]cn1)C(=O)O` [R‐Tf‐D‐LP4], for which the “decrease in tumor volume” value with U‐87MG cell xenograft is ~ 80% and 70–80%; in the test on A549 cell xenograft, ~ 80% and 70–80%; in test [1], ~ 80% and 70–80%. For the same compound, the “inhibition of purified HK‐I activity” value on HK‐I is “inhibits HK-I activity”. In the test with HeLa cells, the “decrease of cellular ATP levels” value is recorded as “about 40%”.
